# Source: article PMC8632880, “Mitochondrial proteome of mouse oocytes and cisplatin-induced shifts in protein profile” (Acta Pharmacologica Sinica, 2021)
# Target: T1, GST-HS90A (Mus musculus, UniProt P07901)
# T1 construct: gene Hsp90aa1; mouse Hsp90aa1 coding region in pGEX-4T-1, N-terminal GST fusion (tag kept), expressed in E. coli, purified, RED-NHS labelled
# Assay: microscale thermophoresis, RED-NHS labelled protein
# Type: binding
compound,measurement,value
[NH2][Pt]([NH2])([Cl])[Cl] [cisplatin],Kd,5.47 ± 0.2 µM
